This passage reports IC50 results from BindingDB's records for PubMed 32898763 (n/a, 2020).

Assay [1] deals with Prostaglandin G/H synthase 1 (Homo sapiens, UniProt P23219). The assay can be described thus: Inhibition of COX-1 (unknown origin).
The target in assay [2] is T1, Prostaglandin G/H synthase 2 (Homo sapiens, UniProt P35354).
T1 sequence (P35354 whole entry): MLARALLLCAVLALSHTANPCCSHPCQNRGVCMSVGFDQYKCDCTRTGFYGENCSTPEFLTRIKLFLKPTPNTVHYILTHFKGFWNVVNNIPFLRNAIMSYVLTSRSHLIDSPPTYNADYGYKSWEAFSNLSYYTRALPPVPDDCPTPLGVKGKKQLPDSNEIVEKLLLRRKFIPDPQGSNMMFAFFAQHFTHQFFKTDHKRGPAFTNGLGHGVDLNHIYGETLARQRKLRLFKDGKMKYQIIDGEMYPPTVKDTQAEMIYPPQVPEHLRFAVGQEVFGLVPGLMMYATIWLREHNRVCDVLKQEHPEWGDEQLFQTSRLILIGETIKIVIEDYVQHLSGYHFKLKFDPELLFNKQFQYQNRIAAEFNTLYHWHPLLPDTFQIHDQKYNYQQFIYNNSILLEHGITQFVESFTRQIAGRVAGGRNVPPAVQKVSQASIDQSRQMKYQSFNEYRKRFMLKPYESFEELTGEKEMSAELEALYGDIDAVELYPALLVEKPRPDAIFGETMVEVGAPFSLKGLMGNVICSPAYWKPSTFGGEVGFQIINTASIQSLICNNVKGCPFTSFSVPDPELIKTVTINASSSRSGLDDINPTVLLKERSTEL
Kind of assay: Inhibition of COX-2 (unknown origin).

Each structure is given as a SMILES string.

Sequence of Prostaglandin G/H synthase 1 (P23219 whole entry): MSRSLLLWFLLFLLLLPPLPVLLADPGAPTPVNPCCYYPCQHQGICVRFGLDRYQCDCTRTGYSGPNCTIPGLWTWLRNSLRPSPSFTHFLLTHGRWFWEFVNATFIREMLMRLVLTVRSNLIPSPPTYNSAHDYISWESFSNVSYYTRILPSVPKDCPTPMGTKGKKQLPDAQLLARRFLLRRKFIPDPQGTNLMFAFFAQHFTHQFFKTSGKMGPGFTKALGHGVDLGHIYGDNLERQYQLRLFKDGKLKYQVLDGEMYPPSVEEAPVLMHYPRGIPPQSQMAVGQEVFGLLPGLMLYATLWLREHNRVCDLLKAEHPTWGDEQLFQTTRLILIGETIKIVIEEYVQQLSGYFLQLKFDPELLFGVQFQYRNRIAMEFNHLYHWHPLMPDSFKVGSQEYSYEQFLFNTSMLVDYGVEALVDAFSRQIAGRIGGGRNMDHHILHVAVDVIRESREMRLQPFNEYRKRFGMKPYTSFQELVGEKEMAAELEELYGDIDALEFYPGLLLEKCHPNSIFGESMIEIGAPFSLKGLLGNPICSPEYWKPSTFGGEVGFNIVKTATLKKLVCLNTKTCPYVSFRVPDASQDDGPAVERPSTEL

As for `CCC(=CCN1Cc2cc(C)cc3nc(O)n(c23)C[C@@H]1C)CC`, the half-inhibitory concentration (IC50) – broadly, the concentration that gives 50% inhibition – in assay [1] came to 9.56 µM; in assay [2], 0.1 µM.
In the same order, the values of `CCC(=CCN1Cc2cc(Cl)cc3nc(S)n(c23)CC1C)CC` (stereo unspecified) are 9.56 µM and 0.1 µM.
In the same order, the values of `CC1Cn2c(S)nc3cc(Cl)cc(c32)CN1CC1CCC1` (stereo unspecified) are 9.56 µM and 0.1 µM.
